From US20180162862A1 (President and Fellows of Harvard College, priority 2015, published 2018)
≈ marks a conversion by molar mass, not a printed value.

Tests used:
S. aureus ATCC 43300 = test: MIC test according to CLSI M7-A9, S. aureus ATCC 43300; assay type: cell-based; settings: Staphylococcus aureus, ATCC43300; CLSI M7-A9, CAMHB, 24 h (Table 2); read-out: S. aureus ATCC 43300 MIC at 24 h
Procedure: (§1) MIC Test (S. aureus ATCC 29213, S. aureus ATCC 43300 and S. aureus Newman)
(§2) Susceptibility testing of S. aureus ATCC 29213, ATCC 43300 and Newman was performed according to Clinical Laboratory Standard Institute (CLSI) guidelines M7-A9. Test articles were stored at room temperature prior to use, then dissolved in filtered sterile DMSO. Stock DMSO solutions were diluted further in cation-adjusted Mueller Hinton broth (CAMHB) to provide appropriate test concentrations. Cultures of S. aureus (ATCC 29213, ATCC 43300 or Newman) were added in accordance with CLSI guidelines and plates incubated at 37° C. in air for 24 h. Endpoints were determined visually (and by spectrophotometer at 600 nm) and the minimum inhibitory concentration (MIC) defined as the lowest concentration of test articles resulting in complete inhibition of visible bacterial growth. Results are detailed in Table 2 (S. aureus ATCC 29213 and ATCC 43300) and Table 3 (S. aureus ATCC 29213, ATCC 43300 and Newman).

S. aureus ATCC 29213 = test: MIC test according to CLSI M7-A9, S. aureus ATCC 29213; assay type: cell-based; settings: Staphylococcus aureus, ATCC29213; CLSI M7-A9, CAMHB, 24 h (Table 2); read-out: S. aureus ATCC 29213 MIC at 24 h
Procedure: as §1, §2

Compound | MIC (S. aureus ATCC 43300) [µg/mL] | MIC (S. aureus ATCC 29213) [µg/mL]
Cc1ccc(-c2nc(NCCCOc3ccc(Cl)c(C)c3)n3[nH]c(=O)cc3n2)cc1 [Example 67, 4-{[3-(4-chloro-3-methylphenoxy)propyl]amino}-2-(4-methylphenyl)-6H,7H-pyrazolo[1,5-a][1,3,5]triazin-7-one] | > 64 | > 64
CC(C)(C)c1ccc(-c2nc(NC3CCC(NCc4ccccc4)CC3)n3[nH]c(=O)cc3n2)cc1 (stereo not drawn) [Example 56, 4-{[4-(benzylamino)cyclohexyl]amino}-2-(4-tert-butylphenyl)-6H,7H-pyrazolo[1,5-a][1,3,5]triazin-7-one] | 8 (≈ 17 µM) | 16 (≈ 34 µM)
CC(C)(C)c1ccc(-c2nc(NCC(O)CNC3CCCCC3)n3[nH]c(=O)cc3n2)cc1 (stereo not drawn) [Example 61, 2-(4-tert-butylphenyl)-4-{[3-(cyclohexylamino)-2-hydroxypropyl]amino}-6H,7H-pyrazolo[1,5-a][1,3,5]triazin-7-one] | 32 (≈ 73 µM) | 32 (≈ 73 µM)
CC(C)(C)c1ccc(-c2nc(NCCCNC3Cc4ccccc4C3)n3[nH]c(=O)cc3n2)cc1 [Example 42, 2-(4-tert-butylphenyl)-4-({3-[(2,3-dihydro-1H-inden-2-yl)amino]propyl}amino)-6H,7H-pyrazolo[1,5-a][1,3,5]triazin-7-one] | 8 (≈ 17.5 µM) | 8 (≈ 17.5 µM)
CC(C)(C)c1ccc(-c2nc(NCCCN3CCOCC3)n3[nH]c(=O)cc3n2)cc1 [Example 41, 2-(4-tert-butylphenyl)-4-{[3-(morpholin-4-yl)propyl]amino}-6H,7H-pyrazolo[1,5-a][1,3,5]triazin-7-one] | 128 (≈ 312 µM) | 128 (≈ 312 µM)
CC(C)(C)c1ccc(-c2nc(N3CCC(OCc4ccccc4)CC3)n3[nH]c(=O)cc3n2)cc1 [Example 21, 4-[4-(benzyloxy)piperidin-1-yl]-2-(4-tert-butylphenyl)-6H,7H-pyrazolo[1,5-a][1,3,5]triazin-7-one] | > 128 | 32 (≈ 69.9 µM)
CC(C)(C)c1ccc(-c2nc(NCCCN3CCC(O)CC3)n3[nH]c(=O)cc3n2)cc1 [Example 40, 2-(4-tert-butylphenyl)-4-{[3-(4-hydroxypiperidin-1-yl)propyl]amino}-6H,7H-pyrazolo[1,5-a][1,3,5]triazin-7-one] | 128 (≈ 301 µM) | 128 (≈ 301 µM)
CN(C)c1nc(-c2ccc(C(C)(C)C)cc2)nc2cc(=O)[nH]n12 [Example 32, 2-(4-tert-butylphenyl)-4-(dimethylamino)-6H,7H-pyrazolo[1,5-a][1,3,5]triazin-7-one] | 32 (≈ 103 µM) | > 32
Cc1cc(NCC(F)CNc2nc(-c3ccc(C(C)(C)C)cc3)nc3cc(=O)[nH]n23)ccc1Cl (stereo not drawn) [Example 66, 2-(4-tert-butylphenyl)-4-({3-[(4-chloro-3-methylphenyl)amino]-2-fluoropropyl}amino)-6H,7H-pyrazolo[1,5-a][1,3,5]triazin-7-one] | 2 (≈ 4.14 µM) | 4 (≈ 8.28 µM)
Cc1ncc(CN2CCC(Nc3nc(-c4ccc(C(C)(C)C)cc4)nc4cc(=O)[nH]n34)CC2)[nH]1 [Example 55, 2-(4-tert-butylphenyl)-4-({1-[(2-methyl-1H-imidazol-5-yl)methyl]piperidin-4-yl}amino)-6H,7H-pyrazolo[1,5-a][1,3,5]triazin-7-one] | 32 (≈ 69.5 µM) | 32 (≈ 69.5 µM)
CC(C)(C)c1ccc(-c2nc(NCCCN3Cc4ccccc4C3)n3[nH]c(=O)cc3n2)cc1 [Example 44, 2-(4-tert-butylphenyl)-4-{[3-(2,3-dihydro-1H-isoindol-2-yl)propyl]amino}-6H,7H-pyrazolo[1,5-a][1,3,5]triazin-7-one] | > 128 | 64 (≈ 145 µM)
Cc1cc(OCCCNc2nc(-c3ccc(C(C)(C)C)cc3)nc3c(F)c(=O)[nH]n23)ccc1Cl [Example 71, 2-(4-tert-butylphenyl)-4-{[3-(4-chloro-3-methylphenoxy)propyl]amino}-8-fluoro-6H,7H-pyrazolo[1,5-a][1,3,5]triazin-7-one] | 8 (≈ 16.5 µM) | 8 (≈ 16.5 µM)
